The record followed here is article PMC7137441, “Synthesis, biological evaluation and molecular docking analysis of vaniline–benzylidenehydrazine hybrids as potent tyrosinase inhibitors” (BMC Chemistry, 2020).

Structures are written as SMILES. Entries after “also recorded” stand apart in the source; their conditions may differ. Read-outs that look alike come from different tables or passages of the source.

Series [1] concerns the target T1, mushroom tyrosinase (Agaricus bisporus, UniProt C7FF04). Nature of the series: Mushroom tyrosinase inhibition assay (L-DOPA as substrate). The class given is biochemical. How it is done:
All test samples were first dissolved in DMSO at 50 mM and diluted to the required concentrations. First, […] of tyrosinase (0.5 mg ml) was mixed with 160 μl of 50 mM phosphate buffer (pH = 6.8) in 96-well microplates and then 10 μl of different concentration of the test sample was added. […] DMSO without test compounds and kojic acid were used as the control and positive control respectively. The tyrosinase activity without inhibitor was defined as 100%. Each concentration was analyzed in three independent experiments run in triplicate.

Series [2] addresses T1, mushroom tyrosinase. In words: Kinetic study of tyrosinase inhibition (Lineweaver-Burk plot, L-DOPA as substrate). The series is classed as biochemical. The following applies: for Vm: L-DOPA 0.25-1 mM.
Experimental: The inhibition constants, Ki, and Vm for tyrosinase inhibitors were determined by fitting the kinetic data to a competitive, noncompetitive, or mixed inhibition model by nonlinear regression analysis using GraphPad Prism.
To determine the inhibition kinetics of vaniline-benzylidenehydrazine a series of experiments were performed. Different concentrations of the 4i (0, 10 and 25 µM) was chosen to get a series of straight lines. Pre-incubation and measurement time were the same as discussed in mushroom tyrosinase inhibition assay protocol. The maximal velocity (Vmax) and the Michaelis constant (Km) of the tyrosinase activity were determined by the Line weaver Burk plot at various concentrations of L-DOPA (0.25, 0.5, 0.75 and 1 mM) as a substrate. The inhibition type of the enzyme was assayed by Line weaver Burk plots of inverse of velocities (1/V) versus inverse of substrate concentrations 1/[S] mM.
Where [3] appears, read: L-DOPA as the substrate, mean ± SEM of three to five independent experiments, read-out: IC50 against tyrosinase enzyme.

T1 sequence (C7FF04 1-392): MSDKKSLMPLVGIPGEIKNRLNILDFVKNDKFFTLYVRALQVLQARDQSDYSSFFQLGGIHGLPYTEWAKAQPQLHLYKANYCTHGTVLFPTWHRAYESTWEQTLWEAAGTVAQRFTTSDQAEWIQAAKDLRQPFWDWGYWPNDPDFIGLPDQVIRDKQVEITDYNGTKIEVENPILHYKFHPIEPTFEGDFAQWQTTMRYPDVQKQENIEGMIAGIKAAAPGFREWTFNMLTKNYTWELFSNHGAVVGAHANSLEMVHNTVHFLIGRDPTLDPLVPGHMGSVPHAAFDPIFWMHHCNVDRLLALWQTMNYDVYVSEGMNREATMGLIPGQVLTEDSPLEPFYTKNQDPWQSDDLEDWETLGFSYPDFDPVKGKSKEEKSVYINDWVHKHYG

For `COc1cc(C(=O)N/N=C/c2ccc(O)cc2O)ccc1O` [Compound 4a, (E)-Nʹ-(2,4-dihydroxybenzylidene)-4-hydroxy-3-methoxybenzohydrazide], the melting point (commonly the temperature of the solid-liquid transition) was determined as 243 °C. For the same compound, the IC50 – broadly, the concentration that inhibits the measured activity by half – at mushroom tyrosinase [1] (setting [3]) came out at 37.1 ± 1.02 µM.

For the compound `COc1cc(C(=O)N/N=C/c2ccc(O)cc2)ccc1O` [Compound 4b, (E)-4-hydroxy-Nʹ-(4-hydroxybenzylidene)-3-methoxybenzohydrazide], the melting point was determined as 256 °C. Also, the IC50 on mushroom tyrosinase [1] (setting [3]) is 15.2 ± 1.34 µM.

`COc1ccc(/C=N/NC(=O)c2ccc(O)c(OC)c2)cc1` [Compound 4c, (E)-4-hydroxy-3-methoxy-Nʹ-(4-methoxybenzylidene)benzohydrazide] displayed a melting point of 110 °C. For the same compound, the IC50 on mushroom tyrosinase [1] (setting [3]) was determined as 35.6 ± 2.8 µM.

The compound `COc1cc(C(=O)N/N=C/c2ccc(OC)c(OC)c2)ccc1O` [Compound 4d, (E)-Nʹ-(3,4-dimethoxybenzylidene)-4-hydroxy-3-methoxy benzohydrazide] gave a melting point of 231 °C. Further, at mushroom tyrosinase [1] (setting [3]), the 50% inhibitory concentration (IC50) stood at 20.9 ± 2.09 µM.

For the compound `COc1cc(C(=O)N/N=C/c2ccc(Br)cc2)ccc1O` [Compound 4e, (E)-Nʹ-(4-bromobenzylidene)-4-hydroxy-3-methoxybenzohydrazide], the melting point was determined as 115 °C. Moreover, on mushroom tyrosinase [1] (setting [3]), the IC50 came to 1.95 ± 2.34 µM.

Compound `COc1cc(C(=O)N/N=C/c2ccc([N+](=O)[O-])cc2)ccc1O` [Compound 4f, (E)-4-hydroxy-3-methoxy-Nʹ-(4-nitrobenzylidene)benzohydrazide] gave a melting point of 195 °C. For the same compound, the IC50 at mushroom tyrosinase [1] (setting [3]) was 29.1 ± 0.89 µM.

In turn, `COc1cc(C(=O)N/N=C/c2cc(OC)c(O)c(OC)c2)ccc1O` [Compound 4g, (E)-4-hydroxy-Nʹ-(4-hydroxy-3,5-dimethoxybenzylidene)-3-methoxy benzohydrazide] returned a melting point of 151 °C. For the same compound, at mushroom tyrosinase [1] (setting [3]), the IC50 was found to be 4.58 µM.

For the compound `COc1ccc(/C=N/NC(=O)c2ccc(O)c(OC)c2)cc1O` [Compound 4h, (E)-4-hydroxy-Nʹ-(3-hydroxy-4-methoxybenzylidene)-3-methoxybenzohydrazide], the melting point came to 98 °C. Also, at mushroom tyrosinase [1] (setting [3]), the 50% inhibitory concentration (IC50) was 10 ± 1.6 µM.

Consider `CCOc1cc(/C=N/NC(=O)c2ccc(O)c(OC)c2)ccc1O` [Compound 4i, (E)-Nʹ-(3-ethoxy-4-hydroxybenzylidene)-4-hydroxy-3-methoxybenzohydrazide], for which the Vm at mushroom tyrosinase [2] (4i at 10 µM) is 0.18 OD/Min; on mushroom tyrosinase [2] (4i at 25 µM), 0.17 OD/Min. Moreover, the Type of inhibition entry at mushroom tyrosinase [2] (Lineweaver-Burk plot, 4i at 0, 10 and 25 µM) is “uncompetitive inhibition; also recorded: uncompetitive inhibitor”. For the same compound, the midpoint of inhibition against mushroom tyrosinase [1], the IC50, lay at 1.58 µM.

`COc1cc(C(=O)N/N=C/c2ccccc2[N+](=O)[O-])ccc1O` [Compound 4j, (E)-4-hydroxy-3-methoxy-Nʹ-(2-nitrobenzylidene)benzohydrazide] registered a melting point of 151 °C. Further, the half-inhibitory concentration (IC50) at mushroom tyrosinase [1] (setting [3]) came to 17 ± 2.03 µM.

`COc1cc(C(=O)N/N=C/c2cccc([N+](=O)[O-])c2)ccc1O` [Compound 4k, (E)-4-hydroxy-3-methoxy-Nʹ-(3-nitrobenzylidene)benzohydrazide]: the melting point amounted to 151 °C. Besides, the IC50 on mushroom tyrosinase [1] (setting [3]) was 5.84 ± 1.9 µM.
